Measurements from PubChem BioAssay AID588681 (The Scripps Research Institute Molecular Screening Center, 2011).
Active and inactive are the calls of the source.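 Rule for the calls: active = half-maximal IDE activation concentration EC50 of 10 µM or lower; inactive = EC50 above 10 µM.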

target: Insulin-degrading enzyme (Homo sapiens) (UniProt P14735); experiment: recombinant IDE activation, cell-free – biochemical, fluorescence polarization, counter-screen for IDE activator project, dose response (AID 588681); conditions: FAbetaB cleavage
Sequence (P14735 whole entry, looked up): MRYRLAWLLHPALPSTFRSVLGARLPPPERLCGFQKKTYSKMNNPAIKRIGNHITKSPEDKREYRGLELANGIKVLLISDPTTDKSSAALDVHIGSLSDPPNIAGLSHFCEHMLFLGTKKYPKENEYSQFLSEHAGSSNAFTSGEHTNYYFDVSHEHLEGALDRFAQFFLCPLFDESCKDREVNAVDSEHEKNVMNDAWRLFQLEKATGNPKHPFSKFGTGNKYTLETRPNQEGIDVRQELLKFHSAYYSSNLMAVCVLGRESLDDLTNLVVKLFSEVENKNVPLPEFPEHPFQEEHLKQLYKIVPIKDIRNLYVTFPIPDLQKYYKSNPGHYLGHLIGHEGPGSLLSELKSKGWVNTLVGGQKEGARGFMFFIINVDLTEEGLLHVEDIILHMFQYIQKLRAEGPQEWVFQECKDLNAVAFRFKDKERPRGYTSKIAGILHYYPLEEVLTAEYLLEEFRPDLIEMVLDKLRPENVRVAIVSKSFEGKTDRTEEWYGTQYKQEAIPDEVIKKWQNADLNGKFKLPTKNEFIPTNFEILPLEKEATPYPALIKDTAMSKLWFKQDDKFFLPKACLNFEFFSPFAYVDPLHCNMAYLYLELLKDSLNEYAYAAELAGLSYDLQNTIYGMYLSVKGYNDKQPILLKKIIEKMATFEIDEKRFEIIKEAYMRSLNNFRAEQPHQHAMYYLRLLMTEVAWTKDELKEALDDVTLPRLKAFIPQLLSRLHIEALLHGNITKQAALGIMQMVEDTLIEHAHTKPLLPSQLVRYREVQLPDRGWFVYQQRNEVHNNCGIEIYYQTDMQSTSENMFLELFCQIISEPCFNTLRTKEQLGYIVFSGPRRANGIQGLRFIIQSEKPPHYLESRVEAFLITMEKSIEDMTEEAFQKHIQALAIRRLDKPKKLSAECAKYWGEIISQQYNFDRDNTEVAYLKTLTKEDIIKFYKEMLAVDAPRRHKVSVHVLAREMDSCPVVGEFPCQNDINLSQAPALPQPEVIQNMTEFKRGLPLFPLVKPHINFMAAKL

Structure (SMILES)	EC50
C#CCOCCOCCOCCNc1nc(N2CCN(C(=O)CCCCCCCCCCNC(=O)[C@H](CO)n3cc(CCCSC)nn3)CC2)nc(N2CCN(C(=O)CCCCCCCCCCNC(=O)[C@H](CCCCN)n3cc(CCO)nn3)CC2)n1	> 54.7 µM (inactive)
C#CCOCCOCCOCCNc1nc(N2CCN(C(=O)CCCCCCCCCCNC(=O)[C@H]([C@@H](C)CC)n3cc(CCCCCN)nn3)CC2)nc(N2CCN(C(=O)CCCCCCCCCCNC(=O)[C@H]([C@@H](C)CC)n3cc(CCCCN=C(N)N)nn3)CC2)n1	2.32 µM
C#CCOCCOCCOCCNc1nc(N2CCN(C(=O)CCCCCCCCCCNC(=O)Cn3cc(C[C@@H](C)O)nn3)CC2)nc(N2CCN(C(=O)CCCCCCCCCCNC(=O)[C@H](CCCN=C(N)N)n3cc(C[C@@H](C)CC)nn3)CC2)n1	6.55 µM
C#CCOCCOCCOCCNc1nc(N2CCN(C(=O)CCCCCCCCCCNC(=O)[C@@H](CCSC)n3cc(CCO)nn3)CC2)nc(N2CCN(C(=O)CCCCCCCCCCNC(=O)[C@H](CO)n3cc(CCCCCN)nn3)CC2)n1	inactive
C#CCOCCOCCOCCNc1nc(N2CCN(C(=O)CCCCCCCCCCNC(=O)[C@H](CCCCN)n3cc(CCO)nn3)CC2)nc(N2CCN(C(=O)CCCCCCCCCCNC(=O)[C@H](CCCN=C(N)N)n3cc(C[C@@H](C)CC)nn3)CC2)n1	7.08 µM

More lines, now with the values ahead:

EC50	Structure (SMILES)
inactive	C#CCOCCOCCOCCNc1nc(N2CCN(C(=O)CCCCCCCCCCNC(=O)Cn3cc(CCCCCN)nn3)CC2)nc(N2CCN(C(=O)CCCCCCCCCCNC(=O)[C@H](CO)n3cc(CCCSC)nn3)CC2)n1
> 54.7 µM (inactive)	C#CCOCCOCCOCCNc1nc(N2CCN(C(=O)CCCCCCCCCCNC(=O)Cn3cc(CCCCCN)nn3)CC2)nc(N2CCN(C(=O)CCCCCCCCCCNC(=O)Cn3cc(C[C@@H](C)O)nn3)CC2)n1
8.55 µM	C#CCOCCOCCOCCNc1nc(N2CCN(C(=O)CCCCCCCCCCNC(=O)Cn3cc(CCCCCN)nn3)CC2)nc(N2CCN(C(=O)CCCCCCCCCCNC(=O)[C@H]([C@@H](C)CC)n3cc(CCCCCN)nn3)CC2)n1
